Experimental data as given in BindingDB's records for doi:10.1124/jpet.102.47407 (University of Tennessee, 2003).
“And” between values parts separate entries of the source, which are not always exact repeats. Equal values may be shown once.

These compounds were tested against T1, cAMP-specific 3',5'-cyclic phosphodiesterase 4B (Rattus norvegicus, UniProt P14646).
T1 sequence (P14646 whole entry): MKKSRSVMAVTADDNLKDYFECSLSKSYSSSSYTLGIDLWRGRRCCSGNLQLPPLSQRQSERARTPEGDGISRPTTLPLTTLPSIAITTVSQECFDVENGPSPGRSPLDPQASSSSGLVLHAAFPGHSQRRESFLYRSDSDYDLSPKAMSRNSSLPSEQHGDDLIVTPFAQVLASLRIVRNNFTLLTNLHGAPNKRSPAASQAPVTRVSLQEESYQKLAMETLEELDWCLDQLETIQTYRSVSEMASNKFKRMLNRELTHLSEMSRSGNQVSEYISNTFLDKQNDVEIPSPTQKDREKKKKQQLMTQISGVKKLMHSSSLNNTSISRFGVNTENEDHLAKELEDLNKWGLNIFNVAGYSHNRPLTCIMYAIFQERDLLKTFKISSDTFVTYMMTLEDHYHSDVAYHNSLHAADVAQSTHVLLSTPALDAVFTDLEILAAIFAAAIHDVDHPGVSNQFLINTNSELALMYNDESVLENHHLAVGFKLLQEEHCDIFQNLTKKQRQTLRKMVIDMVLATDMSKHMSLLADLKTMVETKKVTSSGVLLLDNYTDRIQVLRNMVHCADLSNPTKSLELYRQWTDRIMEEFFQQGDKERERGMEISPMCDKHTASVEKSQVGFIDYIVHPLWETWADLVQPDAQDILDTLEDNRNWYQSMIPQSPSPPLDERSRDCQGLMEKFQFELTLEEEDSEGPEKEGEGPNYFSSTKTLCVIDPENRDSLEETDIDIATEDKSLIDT

SMILES	Ki
COc1ccc(Cc2nccc3cc(OC)c(OC)cc23)cc1OC	> 10 µM and 8.82 µM
CC(C)Cn1c(=O)n(C)c(=O)c2[nH]cnc21 [1-methyl-3-(2-methylpropyl)-2,3,6,7-tetrahydro-1H-purine-2,6-dione]	8.4 µM and 3.09 µM
COc1cc2c(cc1OC)-c1c/c(=N\c3c(C)cc(C)cc3C)n(C)c(=O)n1CC2 [CAS_5537]	> 10 µM and 3.15 µM
COc1ccc(C(Cc2ccncc2)c2ccccc2)cc1OC1CCCC1 (configuration not stated) [CDP 840]	0.9 µM and 1.25 µM
O=C(Nc1c(Cl)cncc1Cl)c1ccc(OC(F)F)c(OCC2CC2)c1 [DAXAS]	0.003 µM and 0.0024 µM
Cc1[nH]c(=O)c(C#N)cc1-c1ccncc1 [Milrinone]	> 10 µM
CCOC(=O)C1=CC2(CC)CCCN3CCc4c(n1c1ccccc41)C32 (configuration not stated) [NSC_443955]	1 µM
